Measured values: patent publication US20250368633A1, “AZEPINE FUSED RING COMPOUND AS RIPK1 INHIBITOR AND USE THEREOF” (ARTIVILA BIOPHARMA, priority 2022, published 2025)

test system: U937 cells; assay: EC50 of necroptosis inhibition in U937 cells (TSZ-induced, CellTiter-Glo); assay type: cell-based; conditions: Homo sapiens, U-937; TSZ (hTNF-α, SM-164, Z-VAD-FMK) 20 hours; 10 concentration points; read-out: EC50 intervals of necroptosis inhibition in U937 cells
Method in brief: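 Luminescent ATP readout (CellTiter-Glo) after 20 h gave viability of TSZ-challenged U937 cells; compounds were added 15 min ahead of TNF-α/SM-164/Z-VAD-FMK. EC50 derived by variable-slope nonlinear regression of inhibition relative to no-TSZ and TSZ-alone controls.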

Question: Which EC50 does the source give for `CC(Cc1ccccc1)NC(=O)C(=O)N[C@H]1COc2ccc(C#CCCO)cc2N(C)C1=O` (mixture of isomers) [Example 37, N^1-((S)-7-(4-hydroxybut-1-yn-1-yl)-5-methyl-4-oxo-2,3,4,5-tetrahydrobenzo[b][1,4]oxazepin-3-yl)-N^2-(1-phenylpropan-2-yl)oxalamide] here?
Answer: Its EC50 is 100 to 500 nM.

Question: With `CC(NC(=O)C(=O)N[C@H]1COc2ccc(C#CCCO)cc2N(C)C1=O)c1ccccc1` (mixture of isomers) [Example 41, N^1-((S)-7-(4-hydroxybut-1-yn-1-yl)-5-methyl-4-oxo-2,3,4,5-tetrahydrobenzo[b][1,4]oxazepin-3-yl)-N^2-(1-phenylethyl)oxalamide] as the compound, how does the EC50 read?
Answer: Its EC50 is under 100 nM.

Question: `CN1CCC(CC#Cc2ccc3c(c2)N(C)C(=O)[C@@H](NC(=O)C(=O)NCCc2ccccc2)CO3)C1=O` (mixture of isomers) [Example 82, N^1-((3S)-5-methyl-7-(3-(1-methyl-2-oxopyrrolidin-3-yl)prop-1-yn-1-yl)-4-oxo-2,3,4,5-tetrahydrobenzo[b][1,4]oxazepin-3-yl)-N^2-phenethyloxalamide] was tested. Which EC50 did it give?
Answer: The EC50 was under 100 nM.

Question: How did the EC50 turn out when `CN1C(=O)[C@@H](NC(=O)C(=O)NCCc2cccc(F)c2)COc2ccc(C#CCN3CCC(O)C3)cc21` (mixture of isomers) [Example 113, N^1-(3-fluorophenethyl)-N^2-((3S)-7-(3-(3-hydroxypyrrolidin-1-yl)prop-1-yn-1-yl)-5-methyl-4-oxo-2,3,4,5-tetrahydrobenzo[b][1,4]oxazepin-3-yl)oxalamide] was run?
Answer: Its EC50 is under 100 nM.

Question: Which EC50 does the source give for `C[C@@H](NC(=O)C(=O)N[C@H]1COc2ccc(C#CCN3CCC(O)C3)cc2N(C)C1=O)c1ccccc1` (mixture of isomers) [Example 126, N^1-((3S)-7-(3-(3-hydroxypyrrolidin-1-yl)prop-1-yn-1-yl)-5-methyl-4-oxo-2,3,4,5-tetrahydrobenzo[b][1,4]oxazepin-3-yl)-N^2-((R)-1-phenylethyl)oxalamide] here?
Answer: The EC50 was under 100 nM.

Question: How did the EC50 turn out when `CC(CNC(=O)C(=O)N[C@H]1COc2ccc(C#CCCO)cc2N(C)C1=O)c1ccccc1` (mixture of isomers) [Example 154, N^1-((S)-7-(4-hydroxybut-1-yn-1-yl)-5-methyl-4-oxo-2,3,4,5-tetrahydrobenzo[b][1,4]oxazepin-3-yl)-N^2-(2-phenylpropyl)oxalamide] was run?
Answer: Its EC50 is under 100 nM.

Question: How did the EC50 turn out when `CN1C(=O)[C@@H](NC(=O)C(=O)NCCc2ccccc2)COc2ccc(C#Cc3cccnc3)cc21` [Example 13, (S)—N^1-(5-methyl-4-oxo-7-(pyridin-3-ylethynyl)-2,3,4,5-tetrahydrobenzo[b][1,4]oxazepin-3-yl)-N^2-phenethyloxalamide] was run?
Answer: The EC50 was under 100 nM.

Question: With `CN1C(=O)[C@@H](NC(=O)C(=O)NCCc2ccccc2)COc2ccc(C#Cc3ccsc3)cc21` [Example 17, (S)—N^1-(5-methyl-4-oxo-7-(thiophen-3-ylethynyl)-2,3,4,5-tetrahydrobenzo[b][1,4]oxazepin-3-yl)-N^2-phenethyloxalamide] as the compound, how does the EC50 read?
Answer: The EC50 was under 100 nM.

Question: Which EC50 does the source give for `CN1C(=O)[C@@H](NC(=O)C(=O)NCCc2ccccc2)COc2ccc(C#C[Si](C)(C)C)cc21` [Example 18, (S)—N^1-(5-methyl-4-oxo-7-((trimethylsilyl)ethynyl)-2,3,4,5-tetrahydrobenzo[b][1,4]oxazepin-3-yl)-N^2-phenethyloxalamide] here?
Answer: Its EC50 is under 100 nM.

Question: How did the EC50 turn out when `CC#Cc1ccc2c(c1)N(C)C(=O)[C@@H](NC(=O)C(=O)NCCc1ccccc1)CO2` [Example 19, (S)—N^1-(5-methyl-4-oxo-7-(prop-1-yn-1-yl)-2,3,4,5-tetrahydrobenzo[b][1,4]oxazepin-3-yl)-N^2-phenethyloxalamide] was run?
Answer: The EC50 was under 100 nM.

Question: For `CN1C(=O)[C@@H](NC(=O)C(=O)NCCc2ccccc2)COc2ccc(C#CC3CCOCC3)cc21` [Example 21, (S)—N^1-(5-methyl-4-oxo-7-((tetrahydro-2H-pyran-4-yl)ethynyl)-2,3,4,5-tetrahydrobenzo[b][1,4]oxazepin-3-yl)-N^2-phenethyloxalamide], which EC50 is on record?
Answer: The EC50 was under 100 nM.

Question: For `CN1C(=O)[C@@H](NC(=O)C(=O)NCCc2ccccc2)COc2ccc(C#Cc3cnn(C)c3)cc21` [Example 22, (S)—N^1-(5-methyl-7-((1-methyl-1H-pyrazol-4-yl)ethynyl)-4-oxo-2,3,4,5-tetrahydrobenzo[b][1,4]oxazepin-3-yl)-N^2-phenethyloxalamide], which EC50 is on record?
Answer: Its EC50 is under 100 nM.

Question: How did the EC50 turn out when `CN1C(=O)[C@@H](NC(=O)C(=O)NCCc2ccccc2)COc2ccc(C#CC3CCCNC3)cc21` (stereo partly drawn) [Example 24, N^1-((3S)-5-methyl-4-oxo-7-(piperidin-3-ylethynyl)-2,3,4,5-tetrahydrobenzo[b][1,4]oxazepin-3-yl)-N^2-phenethyloxalamide] was run?
Answer: The EC50 was under 100 nM.

Question: Which EC50 does the source give for `CN1C(=O)[C@@H](NC(=O)C(=O)NCCc2ccccc2)COc2ccc(C#Cc3cnc4cccnn34)cc21` [Example 25, (S)—N^1-(7-(imidazo[1,2-b]pyridazin-3-ylethynyl)-5-methyl-4-oxo-2,3,4,5-tetrahydrobenzo[b][1,4]oxazepin-3-yl)-N^2-phenethyloxalamide] here?
Answer: The EC50 was under 100 nM.

Question: How did the EC50 turn out when `CN1C(=O)[C@@H](NC(=O)C(=O)NCCc2ccccc2)COc2ccc(C#CC(C)(C)O)cc21` [Example 29, (S)—N^1-(7-(3-hydroxy-3-methylbut-1-yn-1-yl)-5-methyl-4-oxo-2,3,4,5-tetrahydrobenzo[b][1,4]oxazepin-3-yl)-N^2-phenethyloxalamide] was run?
Answer: The EC50 was under 100 nM.

Question: `CN1C(=O)[C@@H](NC(=O)C(=O)NCCc2ccccc2)COc2ccc(C#CCCO)cc21` [Example 31, (S)—N^1-(7-(4-hydroxybut-1-yn-1-yl)-5-methyl-4-oxo-2,3,4,5-tetrahydrobenzo[b][1,4]oxazepin-3-yl)-N^2-phenethyloxalamide] was tested. Which EC50 did it give?
Answer: Its EC50 is under 100 nM.

Question: `CN1C(=O)[C@@H](NC(=O)C(=O)NCc2ccccc2)COc2ccc(C#CCCO)cc21` [Example 32, (S)—N^1-benzyl-N^2-(7-(4-hydroxybut-1-yn-1-yl)-5-methyl-4-oxo-2,3,4,5-tetrahydrobenzo[b][1,4]oxazepin-3-yl)oxalamide] was tested. Which EC50 did it give?
Answer: The EC50 was under 100 nM.

Question: How did the EC50 turn out when `CN1C(=O)[C@@H](NC(=O)C(=O)NCCc2ccccc2F)COc2ccc(C#CCCO)cc21` [Example 33, (S)—N^1-(2-fluorophenethyl)-N^2-(7-(4-hydroxybut-1-yn-1-yl)-5-methyl-4-oxo-2,3,4,5-tetrahydrobenzo[b][1,4]oxazepin-3-yl)oxalamide] was run?
Answer: The EC50 was under 100 nM.

Question: How did the EC50 turn out when `CN1C(=O)[C@@H](NC(=O)C(=O)NCCc2cccc(F)c2)COc2ccc(C#CCCO)cc21` [Example 34, (S)—N^1-(3-fluorophenethyl)-N^2-(7-(4-hydroxybut-1-yn-1-yl)-5-methyl-4-oxo-2,3,4,5-tetrahydrobenzo[b][1,4]oxazepin-3-yl)oxalamide] was run?
Answer: The EC50 was under 100 nM.

Question: Which EC50 does the source give for `CN1C(=O)[C@@H](NC(=O)C(=O)NCCc2ccc(F)cc2)COc2ccc(C#CCCO)cc21` [Example 35, (S)—N^1-(4-fluorophenethyl)-N^2-(7-(4-hydroxybut-1-yn-1-yl)-5-methyl-4-oxo-2,3,4,5-tetrahydrobenzo[b][1,4]oxazepin-3-yl)oxalamide] here?
Answer: Its EC50 is 100 to 500 nM.

Question: Which EC50 does the source give for `CN1C(=O)[C@@H](NC(=O)C(=O)NCCc2cc(F)cc(F)c2)COc2ccc(C#CCCO)cc21` [Example 36, (S)—N^1-(3,5-difluorophenethyl)-N^2-(7-(4-hydroxybut-1-yn-1-yl)-5-methyl-4-oxo-2,3,4,5-tetrahydrobenzo[b][1,4]oxazepin-3-yl)oxalamide] here?
Answer: The EC50 was under 100 nM.

Question: For `CN1C(=O)[C@@H](NC(=O)C(=O)NCc2cccc(F)c2)COc2ccc(C#CCCO)cc21` [Example 39, (S)—N^1-(3-fluorobenzyl)-N^2-(7-(4-hydroxybut-1-yn-1-yl)-5-methyl-4-oxo-2,3,4,5-tetrahydrobenzo[b][1,4]oxazepin-3-yl)oxalamide], which EC50 is on record?
Answer: The EC50 was 100 to 500 nM.

Question: How did the EC50 turn out when `CN1C(=O)[C@@H](NC(=O)C(=O)NCc2ccc(F)cc2)COc2ccc(C#CCCO)cc21` [Example 40, (S)—N^1-(4-fluorobenzyl)-N^2-(7-(4-hydroxybut-1-yn-1-yl)-5-methyl-4-oxo-2,3,4,5-tetrahydrobenzo[b][1,4]oxazepin-3-yl)oxalamide] was run?
Answer: The EC50 was under 100 nM.

Question: `CN1C(=O)[C@@H](NC(=O)C(=O)NCCc2cccc(F)c2)COc2ccc(C#CC(C)(C)O)cc21` [Example 42, (S)—N^1-(3-fluorophenethyl)-N^2-(7-(3-hydroxy-3-methylbut-1-yn-1-yl)-5-methyl-4-oxo-2,3,4,5-tetrahydrobenzo[b][1,4]oxazepin-3-yl)oxalamide] was tested. Which EC50 did it give?
Answer: The EC50 was under 100 nM.

Question: For `CN1C(=O)[C@@H](NC(=O)C(=O)NCCc2ccccc2)COc2ccc(C#CC3(O)COC3)cc21` [Example 43, (S)—N^1-(7-((3-hydroxyoxetan-3-yl)ethynyl)-5-methyl-4-oxo-2,3,4,5-tetrahydrobenzo[b][1,4]oxazepin-3-yl)-N^2-phenethyloxalamide], which EC50 is on record?
Answer: Its EC50 is under 100 nM.

Question: For `CN1C(=O)[C@@H](NC(=O)C(=O)NCCc2ccccc2)COc2ccc(C#CC3(O)CCCCC3)cc21` [Example 44, (S)—N^1-(7-((1-hydroxycyclohexyl)ethynyl)-5-methyl-4-oxo-2,3,4,5-tetrahydrobenzo[b][1,4]oxazepin-3-yl)-N^2-phenethyloxalamide], which EC50 is on record?
Answer: The EC50 was under 100 nM.

Question: With `C/C(C#Cc1ccc2c(c1)N(C)C(=O)[C@@H](NC(=O)C(=O)NCCc1ccccc1)CO2)=C/CO` [Example 45, (S,Z)-N^1-(7-(5-hydroxy-3-methylpent-3-en-1-yn-1-yl)-5-methyl-4-oxo-2,3,4,5-tetrahydrobenzo[b][1,4]oxazepin-3-yl)-N^2-phenethyloxalamide] as the compound, how does the EC50 read?
Answer: Its EC50 is under 100 nM.

Question: With `CN1C(=O)[C@@H](NC(=O)C(=O)NCCc2ccccc2)COc2ccc(C#CCN3CCC(O)C3)cc21` (stereo partly drawn) [Example 46, N^1-((3S)-7-(3-(3-hydroxypyrrolidin-1-yl)prop-1-yn-1-yl)-5-methyl-4-oxo-2,3,4,5-tetrahydrobenzo[b][1,4]oxazepin-3-yl)-N^2-phenethyloxalamide] as the compound, how does the EC50 read?
Answer: The EC50 was under 100 nM.

Question: Which EC50 does the source give for `CN1C(=O)[C@@H](NC(=O)C(=O)NCCc2ccccc2)COc2ccc(C#CCN3CCC(=O)CC3)cc21` [Example 47, (S)—N^1-(5-methyl-4-oxo-7-(3-(4-oxopiperidin-1-yl)prop-1-yn-1-yl)-2,3,4,5-tetrahydrobenzo[b][1,4]oxazepin-3-yl)-N^2-phenethyloxalamide] here?
Answer: The EC50 was under 100 nM.
